{"source": "patent US20250052985A1", "about": "“SYSTEM AND METHOD FOR QUANTITATIVE PHASE IMAGING FOR MULTI-PARAMETRIC SCREENING OF TUMOR THERAPY RESPONSE” (UNIVERSITY OF UTAH RESEARCH FOUNDATION, priority 2023, published 2025)", "type_in_all_cases": "cell-based", "key": {"[1]": {"system": "MDA-MB-231 cells", "experiment": "Quantitative phase imaging (QPI) growth response, MDA-MB-231", "design": "DoR QPI: scale not given here; ToR 20 μM: unit not given here", "details": "for Max Asymptote / Min Asymptote: MDA-MB-231, 4-parameter Hill fit of mean SGR vs concentration, one line per replicate; for EC50: Homo sapiens, MDA-MB-231, MDA-MB-231 cell line", "text": "In some embodiments, breast cancer cell lines are imaged, representing diverse clinical subtypes, summarized in Table 2 below, using a QPI microscope (FIG. 1A) based on differential phase contrast (DPC) microscopy and phase reconstruction via a QPI microscope system. DPC is used for image acquisition and phase reconstruction because DPC's flexible design may be customized for high throughput phase measurements. […] As illustrated in the embodiment of FIG. 1A, a QPI microscope system 100 conducts assays in a 96-well plate (e.g., a well-plate 105) with 6-point dose response curves and up to five therapies in triplicate including solvent controls, summarized in Table 4 below. As described below, in reference to FIG. 1A, a growth response of cells is measured noninvasively using QPI via a QPI microscope system 110 before being assayed using a CTG reader 115.\nFIG. 1B illustrates a timeline plot 200 showing two plates (e.g., two, separate well-plates 105) set up in parallel to measure cell viability. With reference to FIG. 1B, two plates are set-up simultaneously for each experiment. A first plate 205 is incubated for 27 hours (h) post drug exposure prior to CTG analysis (3 h equilibration+24 h of imaging), which measures cell adenosine triphosphate (ATP) content as a surrogate for cell viability. A second plate 210 is imaged for 72 h after 3 h equilibration (e.g., 75 h) and followed by CTG. […] The imaging locations are imaged for 72 h, as shown by images 1700-1715 of FIG. 7.\nIn some embodiments, a dose-dependent change in growth, as indicated by a change in the rate of mass accumulation or loss, is a parameter that can be extracted from QPI dose-response data. […] Individual specific growth rate measurements are indicated by points in the distribution of the graph 1200 of FIG. 2A. Blue is indicative of the DMSO control and red is indicative of doxorubicin. The black outline is a kernel density function fit to the distribution of specific growth rates for each condition (e.g., *p<0.05, **p<0.01). In some embodiments, the average SGR of each condition is fit to a sigmoid dose-response curve using a Hill equation. For example, computed logistic fit parameters using a 4-parameter Hill model via the QPI microscope system 110 for all conditions are summarized in Tables 5-8 below. To determine if there is a response, as illustrated by FIG. 2B, the QPI microscope system 110 tests goodness of fit, adjusts for degrees of freedom using an F-test at significance p<0.01 by comparison to a flat line, as an indicator of no response. For cases with a better fit to the Hill equation, the 4-parameter Hill curve may be used by the QPI microscope system 110 to determine the EC50, a measure of sensitivity to therapy because it represents the effective concentration at which 50% of the cells respond to therapy, as illustrated by FIG. 10. […] A 4-parameter Hill curve is fit to each dose response plot to extract the depth of response and EC50 for each cell/drug pair. A flat line represents no response due to failure of the F-test to reject the null hypothesis that the logistic fit is indistinguishable from a flat line. […] Each color indicates a different drug or therapy used."}, "[2]": {"system": "HCI-037 PDxO cells", "experiment": "QPI on cells from patient-derived organoid HCI-037 (primary lesion)", "details": "HCI-037, 48 h imaging, 3-parameter Hill model", "description": "(§1) In some embodiments, the QPI microscope system 110 performs QPI on cells from patient-derived organoids and direct-from-patient samples. For example, the electronic controller 155 analyzes data on cells from a set of 5 organoids representing samples collected from two patients, as illustrated by a workflow 3400 in FIG. 24. The workflow 3400 is an experiment workflow illustrating how assays are analyzed by the QPI microscope system 110. In some embodiments, the QPI microscope system 110 images cells for 48 h, and uses an automatic segmentation algorithm, via the electronic controller 155, to identify individual cells from background, as shown in images 3405 and 3410 of FIG. 24. […] The electronic controller 155 determines the mass of each cell by summing the cell mass over the segmented area. In some embodiments, plots of mass over time reveal single cell growth rates, as shown by graph 3415 of FIG. 24. The graph 3415 is a mass vs. time plot showing DMSO treated cells growing cells at a typical location. Cells outlined in green are shown as green on the plot, other growing cells are shown in purple. The electronic controller 155 determine the specific growth rate (SGR) by fitting a line to time-series mass measurements and normalizing by an initial mass predicted by the fit to account for the effect of cell size on growth rate. The electronic controller 155 fits SGR as a function of dose to a sigmoidal dose response curve using a 3-parameter Hill model to extract dose response measurements, as shown by graph 3420 of FIG. 24. […] In some embodiments, EC50 measured by the QPI microscope system 110 is strongly concordant with gold standard techniques such as CTG over 27 conditions (e.g., 9 compounds, 3 breast cancer cell lines). […] As with cell line data, QPI data on cells from PDxO resolves differences in temporal dynamics of response to therapy, as shown in graph 3425 of FIG. 24. […] In some embodiments, the electronic controller 155 is configured to determine a drug response of each of the plurality of treatment samples from patient derived organoids.\nThe graphs 3500 includes graph A of the graphs 3500 showing normalized mass vs. time for HCI-037 (primary), HCI-038 (metastatic), and HCI-039 (pleural effusion) showing reduction in growth as concentration increases. Graphs B, C, D, and E of the graphs 3500 show dose response plots showing the differential response between different disease models. Graphs F, G, H, and I of the graphs 3500 show Hellinger distance vs. time plots showing the time of response for the different models treated with various therapies. In some embodiments, HCI-037, HCI-038, and HCI-039, PDxO models are used that are derived from primary lesion, bone metastasis, and pleural effusion, respectively, at different time points from a single patient during the course of treatment and progressive disease. In some embodiments, the electronic controller 155 is configured to determine a difference drug response from patient derived organoids. In some embodiments, the patient derived organoids are tumor organoids."}, "[3]": {"system": "HCI-039 PDxO cells", "experiment": "QPI on cells from patient-derived organoid HCI-039 (pleural effusion)", "details": "HCI-039, pleural effusion", "description": "as §1, with “organoids. […]” for “organoids.”"}}, "note": "“And” between values parts separate entries of the source, which are not always exact repeats. Equal values may be shown once. Read-outs that look alike come from different tables or passages of the source."}
{"smiles": "CC[C@]1(O)C[C@@H]2CN(CCc3c([nH]c4ccccc34)[C@@](C(=O)OC)(c3cc4c(cc3OC)N(C)[C@H]3[C@@](O)(C(=O)OC)[C@H](OC(C)=O)[C@]5(CC)C=CCN6CC[C@]43[C@@H]65)C2)C1", "note": "[Vinblastine]", "values": [{"measurement": "Max Asymptote", "setting": "[1]; 24 h QPI", "value": "0.02419 and 0.02824 and 0.03124"}, {"measurement": "Min Asymptote", "setting": "[1]; 24 h QPI", "value": "0.0149 and 0.01503 and 0.01517"}, {"measurement": "Max Asymptote", "setting": "[1]; 72 h QPI", "value": "0.007654 and 0.0105 and 0.007938"}, {"measurement": "Min Asymptote", "setting": "[1]; 72 h QPI", "value": "0.03001 and 0.01871 and 0.03086"}, {"measurement": "EC50", "setting": "[1]; EC50 of the standard deviation, read-out: EC50, SD (converted)", "value": 14.9, "unit": "µM"}, {"measurement": "EC50", "setting": "[1]; QPI growth rate, read-out: EC50, QPI", "value": 0.4, "unit": "µM"}, {"measurement": "growth rate and heterogeneity over time", "setting": "[1]; MDA-MB-231", "value": "decrease in growth rate and heterogeneity simultaneously"}, {"measurement": "growth rate and heterogeneity over time", "setting": "[1]; MDA-MB-231, 0.4 μM", "value": "decrease in growth rate and heterogeneity simultaneously"}, {"measurement": "growth rate and heterogeneity over time", "setting": "[1]; MDA-MB-231, 2 μM", "value": "decrease in growth rate and heterogeneity simultaneously"}, {"measurement": "growth rate and heterogeneity over time", "setting": "[1]; MDA-MB-231, 20 μM", "value": "decrease in growth rate and heterogeneity simultaneously"}, {"measurement": "growth rate and heterogeneity as concentration increases", "setting": "[1]; MDA-MB-231, FIG. 22", "value": "decrease in growth rate and heterogencity simultaneously"}, {"measurement": "growth rate and heterogeneity over time", "setting": "[1]; MDA-MB-231, lowest concentrations, FIG. 21 G-H", "value": "growth rate decreases over time with little change in heterogeneity"}, {"measurement": "DoR QPI", "setting": "[1]; MDA-MB-231 cell line, depth of response, QPI", "value": 0.8}, {"measurement": "ToR 20 μM", "setting": "[1]; MDA-MB-231 cell line, time of response at 20 μM", "value": 4.7}, {"measurement": "dose response (SGR vs dose)", "setting": "[2]", "value": "lesser response"}, {"measurement": "response compared with primary lesion model", "setting": "[3]", "value": "stronger response"}]}
